Marks after values point to notes of the source that are not given here.
Experiments:
[1] = Spectral properties of the fluorinated rhodamines (absorption, emission, quantum yield, lifetime); assay type: physicochemical
Description: Extinction coefficients (of the long wavelength maximum) which are lower than ca. 8×10^4 M^−1 cm^−1 indicate the presence of the closed non-fluorescent form.

[2] = tested on: living mammalian cells (PtK2); test: Membrane-permeation experiments in living cells, epifluorescence microscope; assay type: cell-based; settings: 15 minutes
Description: FIG. 9. Membrane-permeation experiments of the presented dyes. Living mammalian cells (PtK2) were incubated for 15 minutes with a 50 μg dye/ml solution. The subcellular localization of the dye was imaged in an epifluorescence microscope. A: 46-H—CH2 CF3—H—H (16); B: 42-COOH (15); C: 23; D: 37-Me-Me-H (27); E: 42-H (14)-methylester; F: 33-H—H (18).
The most important prerequisite for fluorophores used in these labeling strategies is that sufficient amounts of it need to pass cellular membrane(s) to reach the target protein. In order to asses the permeability of the cell membrane to the fluorescent dyes described in the presented invention, living mammalian cells (PtK2) previously grown overnight on cover slips, were first subjected to either 500 μg dye/ml or 50 μg dye/ml in growth medium for 15 minutes. (The amount of dye used for labeling of SNAP-fusion proteins is below 5 μg dye/ml.) Then, the cells were washed with growth medium (without dye) for 15 minutes, and imaged using an epifluorescence microscope.

[3] = Ground state depletion (GSDIM) pump-probe measurements in PVA matrix; assay type: physicochemical; settings: for λem / λex: PVA matrix table; for Γfl, remaining fluorescence after 5 measurement cycles / Rfl, t=0, residual fluorescence after the pump-pulse: PVA matrix; for Γfl, remaining fluorescence after 5 measurement cycles: at one spot with the given power density; for Rfl, t=0, residual fluorescence after the pump-pulse: pump-pulse power density per dye 14-110 kW/cm^2
Text: In this method, “off” and “on” switching of the fluorescence is achieved by transiently shelving the fluorophores into a meta-stable dark state. Upon the return of only a few isolated single molecules to the fluorescent singlet state, positions of these single light emitting spots can be imaged on a camera and localized with high precision. Upon repeating this procedure and acquiring many pictures, a super-resolution image can be reconstructed from the localized positions. A prerequisite of this method is that >70% of the ensemble of the applied fluorescent dyes can be shelved into a dark state at a time (to ensure the detection of isolated fluorescent spots at a time in a densely labeled sample) and that the fluorophores are bright enough, i.e., that they emit enough photons while being in the singlet on-state (to ensure high precision of localization).
Switching off of the laser leads to a recovery of the fluorescence ensemble within a characteristic recovery time of 150-450 ms (Table 5), indicating the shelving into a metastable dark state. The measurements were performed in a pump-probe mode, i.e., the residual level of fluorescence was probed with I<100 W/cm^2 for 0.5 ms after strong irradiation for 10 ms with the given laser intensity in Table 5.
Furthermore, recovery of the fluorescence can be accelerated by addition of UV light, which leads to an optically-induced depopulation of the dark states. Already 2-3 kW/cm^2 of 375 nm light recovers the fluorescence within an irradiation period of 0.5 ms. […] The accelerated recovery is important for samples with low density of labels, where the addition of UV light and thus acceleration of the return from a dark state helps to accelerate image acquisition. Photostabilities of the studied fluorescent dyes under the GSDIM conditions are different: 15-50 pump-probe cycles with a pump intensity of 14-110 kW/cm^2 bleach 30-95% of the whole ensemble.

[4] = Photoresistance in aqueous solutions irradiated with 488 nm light (3 W/cm^2); assay type: physicochemical; settings: for change in emission on irradiation: colored water solutions, several hours, 488 nm line of an Argon laser
Text: The compounds also display an outstanding photostability when irradiated for a prolonged time. […] The initial absorption at the irradiation wavelength was the same for all solutions. […] After two hours of irradiation, compounds 14 and 15 retain more than 50% of the initial emission intensity and compound 14a has about 90% of the initial signal left.
FIG. 2. Photoresistance of selected compounds (14-17, 14a, and 16a in Table 2), and some commercially available fluorophores with the similar spectral properties (Alexa Fluor 488®, Rhodamine Green®, Oregon Green 488®, and Fluorescein) in aqueous solutions irradiated with 488 nm light (3 W/cm^2)

[5] = cited from earlier work; for Photobleaching quantum yields: in water, low light intensities (up to 10^3 W/cm^2)

Row | Compound | ABSORPTION λMAX ([1]; aqueous buffer at pH 7) | EMISSION λMAX ([1]; aqueous buffer at pH 7) | ΦFL ([1]; aqueous buffer at pH 7) | τFL ([1]; aqueous buffer at pH 7) [ns] | ABSORPTION ε ([1]; methanol) [M⁻¹ cm⁻¹] | ABSORPTION λMAX ([1]; methanol) | EMISSION λMAX ([1]; methanol) | Structures stained in living cells ([2]; 500 μg dye/ml) | λem [3] [nm] | λex [3] [nm] | Γfl, remaining fluorescence after 5 measurement cycles [3] [%] | Rfl, t=0, residual fluorescence after the pump-pulse [3] [%] | change in emission on irradiation [4] | Structures stained in living cells ([2]; 50 μg dye/ml) | ABSORPTION ε ([1]; aqueous buffer at pH 7) [M⁻¹ cm⁻¹] | stability relative to rhodamine 6G ([5]; high light intensities (up to 10^7 W/cm^2)) | Photobleaching quantum yields [5] | initial emission intensity retained ([4]; after two hours of irradiation, 488 nm, 3 W/cm^2)
1 | Nc1c(F)cc2c(c1S(=O)(=O)O)Oc1c(cc(F)c(N)c1S(=O)(=O)O)C21OC(=O)c2ccccc21 [Compound 12, 2,7-Difluoro-4,5-disulforhodamine] | 488 nm | 512 nm | 0.89 | 4.0 | 42000 | 498 nm | 514 nm | Nearly no stain visible. | 512 | 488 | 20 | 8 |  |  |  |  |  | 
2 | COC(=O)CCN(C)C(=O)c1ccccc1-c1c2ccc(=NCC(F)(F)F)cc-2oc2cc(NCC(F)(F)F)ccc12 [Compound 44-Me] |  |  |  |  | 87000 | 512^b nm | 534^b nm | Cytoplasmatic stain visible. | 534 | 512 | 90 | 8 |  |  |  |  |  | 
3 | O=C(O)c1ccccc1-c1c2ccc(=NCC(F)(F)F)c(S(=O)(=O)O)c-2oc2c(S(=O)(=O)O)c(NCC(F)(F)F)ccc12 [Compound 16, 4,5-Disulfo-N,N′-bis(2,2,2-trifluoroethyl)rhodamine] | 499 nm | 520 nm | 0.88 | 3.8 | 87000 | 507 nm | 524 nm | Dim cellular stain with brightly |  |  |  |  | without any significant changes in their emission | Dim cytoplasmatic stain with bright |  |  |  | 
4 | 2,7-Difluoro-N,N′-bis(2,2,2-trifluoroethyl)-4,5-disulforhodamine [Compound 20] | 506^a nm | 531^a nm | 0.66 | 3.2 |  |  |  | Nearly no stain visible. | 531 | 506 | 50 | 25 |  | Dim cytoplasmatic stain with dots | 54000 |  |  | 
5 | CN(C)c1ccc2c(-c3ccccc3C(=O)[O-])c3ccc(N(C)C)cc3[o+]c2c1 [tetramethyl rhodamine] |  |  |  |  |  |  |  |  |  |  |  |  |  |  |  | 4-5 times | 3.3 ×10^−7 | 
6 | CCN=c1cc2oc3cc(NCC)c(C)cc3c(-c3ccccc3C(=O)OCC)c-2cc1C.Cl [rhodamine 6G] |  |  |  |  |  |  |  |  |  |  |  |  |  |  |  |  | 12 ×10^−7 | 
7 | CN(CCC(=O)O)C(=O)c1ccccc1-c1c2ccc(=NCC(F)(F)F)cc-2oc2cc(NCC(F)(F)F)ccc12.Cl [Compound 14a] | 510 nm | 531 nm | 0.86 | 4.2 |  | 512 nm | 534 nm | Mitochondrial stain visible. |  |  |  |  |  |  | 57000 |  |  | about 90%
8 | COC(=O)c1ccccc1-c1c2ccc(N)cc2[o+]c2cc(N)ccc12 [methyl ester of rhodamine 110] |  |  |  |  |  |  |  |  |  |  |  |  |  |  |  |  | 6.6 ×10^−7 | 
9 | CN(CCC(=O)O)C(=O)c1ccccc1-c1c2ccc(=NCC(F)(F)F)c(S(=O)(=O)O)c-2oc2c(S(=O)(=O)O)c(NCC(F)(F)F)ccc12 [Compound 16a] | 512 nm | 530 nm | 0.86 | 4.1 | 74000 | 517 nm | 536 nm | Cellular stain visible; bright | 530 | 512 | 35 | 25 | without any significant changes in their emission |  |  |  |  | 
